Each structure is given as a SMILES string. “And” between values parts separate entries of the source, which are not always exact repeats. Equal values may be shown once.

A word on the T/C: it is the result in the treated group divided by that in the control group, in per cent.

For this experiment, the system named is BDF1 mice, Adenocarcinoma 755 s.c., tumor weight T/C. As to the kind of experiment: NCI In Vivo Anticancer Drug Screen. Data for tumor model Adenocarcinoma 755 (subcutaneous) in B6D2F1 (BDF1) mice. Conditions: endpoint: mean tumor weight, higher = larger tumour. In outline:
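In vivo antitumor screen on a transplantable tumor line. Result equals the measure in compound-treated animals divided by the same measure in vehicle controls.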

The mark [1] stands for this setting: dose: 30.0 mg/kg/injection, schedule: Q01DX011 (ip), vehicle: carboxymethylcellulose (CMC).
[2] abbreviates: dose: 60.0 mg/kg/injection, schedule: Q01DX011 (ip), vehicle: carboxymethylcellulose (CMC).
Setting [3] is: dose: 120.0 mg/kg/injection, schedule: Q01DX011 (ip), vehicle: carboxymethylcellulose (CMC).
Setting [4] is: dose: 240.0 mg/kg/injection, schedule: Q01DX011 (ip), vehicle: carboxymethylcellulose (CMC).
The mark [5] stands for this setting: dose: 62.0 mg/kg/injection, schedule: Q01DX011 (ip), vehicle: methylcellulose (MC).
Setting [6] is: dose: 125.0 mg/kg/injection, schedule: Q01DX011 (ip), vehicle: methylcellulose (MC).
[7] abbreviates: dose: 250.0 mg/kg/injection, schedule: Q01DX011 (ip), vehicle: methylcellulose (MC).
The mark [8] stands for this setting: dose: 25.0 mg/kg/injection, schedule: Q01DX011 (sc), vehicle: steriod suspending solution.
The mark [9] stands for this setting: dose: 200.0 mg/kg/injection, schedule: Q01DX011 (ip), vehicle: other.
Where [10] appears, read: dose: 250.0 mg/kg/injection, schedule: Q01DX011 (ip), vehicle: other.
The mark [11] stands for this setting: dose: 31.0 mg/kg/injection, schedule: Q01DX011 (ip), vehicle: methylcellulose (MC).
The mark [12] stands for this setting: dose: 6.25 mg/kg/injection, schedule: Q01DX011 (ip), vehicle: methylcellulose (MC).
[13] abbreviates: dose: 12.5 mg/kg/injection, schedule: Q01DX011 (ip), vehicle: methylcellulose (MC).
[14] abbreviates: dose: 25.0 mg/kg/injection, schedule: Q01DX011 (ip), vehicle: methylcellulose (MC).

Regarding `CCCCCCCCCCCC[N+](C)(C)c1ncnc2nc[nH]c12`, the T/C (dose: 12.0 mg/kg/injection, schedule: Q01DX011 (ip), vehicle: carboxymethylcellulose (CMC)) is 103 % of control; the T/C (dose: 24.0 mg/kg/injection, schedule: Q01DX011 (ip), vehicle: carboxymethylcellulose (CMC)) is 55 % of control; the T/C (dose: 48.0 mg/kg/injection, schedule: Q01DX011 (ip), vehicle: carboxymethylcellulose (CMC)) is 13 % of control.

For `CN[C@H]1CCc2cc(OC)c(OC)c(OC)c2-c2ccc(OC)c(=O)cc21`, the T/C (dose: 0.75 mg/kg/injection, schedule: Q01DX011 (ip), vehicle: methylcellulose (MC)) was 44 % of control; the T/C (dose: 1.5 mg/kg/injection, schedule: Q01DX011 (ip), vehicle: methylcellulose (MC)) was 60 % of control; the T/C (dose: 3.0 mg/kg/injection, schedule: Q01DX011 (ip), vehicle: methylcellulose (MC)) was 56 % of control; the T/C (dose: 6.0 mg/kg/injection, schedule: Q01DX011 (ip), vehicle: methylcellulose (MC)) is 7 % of control.

With `Cn1c(N)nc2n[nH]nc2c1=O`, the T/C by setting is: under setting [1], 105 % of control; under setting [2], 119 % of control; (dose: 100.0 mg/kg/injection, schedule: Q01DX011 (ip), vehicle: carboxymethylcellulose (CMC)) 98 % of control; under setting [3], 46 % of control; under setting [4], 97 % of control.

For `CCCCNc1nc(N)nc2c1nnn2CCCC`, the T/C is, setting by setting: under setting [5], 54 % of control; under setting [6], 78 % of control; under setting [7], 45 % of control.

Take `CC(C)CCSc1nc(N)nc2nc[nH]c12`: the T/C (dose: 4.68 mg/kg/injection, schedule: Q01DX011 (ip), vehicle: methylcellulose (MC)) was 59 % of control; the T/C (dose: 9.37 mg/kg/injection, schedule: Q01DX011 (ip), vehicle: methylcellulose (MC)) is 29 % of control; the T/C (dose: 18.75 mg/kg/injection, schedule: Q01DX011 (ip), vehicle: methylcellulose (MC)) was 21 % of control; the T/C (dose: 37.5 mg/kg/injection, schedule: Q01DX011 (ip), vehicle: methylcellulose (MC)) is 12 % of control.

Consider `C[C@]12C[C@H](O)[C@H]3[C@@H](CCC4=CC(=O)CC[C@@]43C)[C@@H]1CC[C@@H]2C(=O)CF`, for which the T/C is 121 % of control under setting [8]; 79 % of control (dose: 200.0 mg/kg/injection, schedule: Q01DX011 (sc), vehicle: steriod suspending solution); 79 % of control (dose: 400.0 mg/kg/injection, schedule: Q01DX011 (sc), vehicle: steriod suspending solution).

With `CCN(CC)CCOc1ccc(C2=C(c3ccccc3)CCc3cc(OC)ccc32)cc1`, the T/C was 48 % of control under setting [8] and 32 % of control (dose: 50.0 mg/kg/injection, schedule: Q01DX011 (sc), vehicle: steriod suspending solution).

`CCC(C)SC1=NC=NC2=NC=NC21` (stereo not given): the T/C reads like this: (dose: 9.0 mg/kg/injection, schedule: Q01DX011 (ip), vehicle: other) 56 % of control; (dose: 13.0 mg/kg/injection, schedule: Q01DX011 (ip), vehicle: other) 33 % of control; (dose: 20.0 mg/kg/injection, schedule: Q01DX011 (ip), vehicle: other) 6 % of control; (dose: 30.0 mg/kg/injection, schedule: Q01DX011 (ip), vehicle: other) 6 % of control.

Regarding `C(=N\OCCc1ccccc1)/c1cccnc1`, the T/C (dose: 88.0 mg/kg/injection, schedule: Q01DX011 (ip), vehicle: methylcellulose (MC)) is 70 % of control.

For the compound `O=C(OCC1OC(n2cnc3c(=S)nc[nH]c32)C(OC(=O)c2ccc([N+](=O)[O-])cc2)C1OC(=O)c1ccc([N+](=O)[O-])cc1)c1ccc([N+](=O)[O-])cc1` (stereo not given), the T/C (dose: 6.25 mg/kg/injection, schedule: Q01DX011 (ip), vehicle: other) was 70 % of control; the T/C (dose: 12.5 mg/kg/injection, schedule: Q01DX011 (ip), vehicle: other) was 85 % of control; the T/C (dose: 25.0 mg/kg/injection, schedule: Q01DX011 (ip), vehicle: other) is 58 % of control and 68 % of control; the T/C (dose: 50.0 mg/kg/injection, schedule: Q01DX011 (ip), vehicle: other) was 52 % of control and 76 % of control; the T/C (dose: 75.0 mg/kg/injection, schedule: Q01DX011 (ip), vehicle: other) is 8 % of control; the T/C (dose: 150.0 mg/kg/injection, schedule: Q01DX011 (ip), vehicle: other) is 1 % of control. The T/C reads like this: under setting [9], 1 % of control and 6 % of control; under setting [10], 3 % of control.

Take `Nc1nc(Oc2ccc(Cl)cc2)c2n[nH]nc2n1`: the T/C (dose: 200.0 mg/kg/injection, schedule: Q01DX011 (ip), vehicle: carboxymethylcellulose (CMC)) was 66 % of control.

As to `Nc1nc2c(ccn2Cc2ccccc2)c(=O)[nH]1`, the T/C by setting is: under setting [1], 92 % of control; under setting [3], 106 % of control.

As for `Cc1cc(Nc2cccc(Cl)c2)nc(N)n1`, the T/C (dose: 15.0 mg/kg/injection, schedule: Q01DX011 (ip), vehicle: methylcellulose (MC)) is 114 % of control and the T/C under setting [11] is 56 % of control.

For the compound `CO[C@@H]1[C@@H](OC2OC(C)C(OC3CC(C)(O)C(OC(=O)CC(C)C)C(C)O3)C(N(C)C)C2O)[C@@H](CC=O)C[C@@H](C)C(=O)/C=C/C2O[C@H]2C[C@@H](C)OC(=O)C[C@H]1OC(C)=O` (stereo not given in full), the T/C is, setting by setting: under setting [9], 66 % of control; under setting [10], 60 % of control and 63 % of control; (dose: 300.0 mg/kg/injection, schedule: Q01DX011 (ip), vehicle: other) 24 % of control and 33 % of control; (dose: 350.0 mg/kg/injection, schedule: Q01DX011 (ip), vehicle: other) 45 % of control.

For `CCCCN(C)N=Nc1ccc(CCC(=O)NN)cc1`, under “dose: 31.0 mg/kg/injection, schedule: Q01DX011 (ip), vehicle: carboxymethylcellulose (CMC)”, the T/C was 19 % of control.

In the case of `CC(C)Cn1cnc2c(SCc3cccc(F)c3)nc(N)nc21`, the T/C by setting is: under setting [12], 75 % of control; under setting [13], 55 % of control; under setting [14], 15 % of control; (dose: 50.0 mg/kg/injection, schedule: Q01DX011 (ip), vehicle: methylcellulose (MC)) 1 % of control.

As for `Cc1cnc(SCc2ccc(Cl)cc2)nc1Nc1ccc(Cl)cc1Cl`, the T/C is 97 % of control under setting [11], 69 % of control under setting [5], 65 % of control under setting [6] and 65 % of control under setting [7].

`CSc1nc(=O)cc2[nH]c(O)cn12`: the T/C by setting is: under setting [1], 90 % of control; under setting [2], 98 % of control; under setting [3], 50 % of control; under setting [4], 118 % of control.

On to `CCCCn1cnc2c(SCc3cccc(F)c3)nc(N)nc21`, for which the T/C (dose: 3.1 mg/kg/injection, schedule: Q01DX011 (ip), vehicle: methylcellulose (MC)) is 50 % of control; the T/C under setting [12] is 61 % of control; the T/C under setting [13] is 23 % of control; the T/C under setting [14] is 1 % of control and 8 % of control.

For the compound `OCCOCCN1CCN(CCCN2c3ccccc3Sc3ccc(C(F)(F)F)cc32)CC1`, the T/C by setting is: (dose: 5.0 mg/kg/injection, schedule: Q01DX011 (ip), vehicle: saline) 54 % of control and 75 % of control; (dose: 20.0 mg/kg/injection, schedule: Q01DX011 (ip), vehicle: saline) 12 % of control and 29 % of control.

The values are drawn from PubChem BioAssay AID180 (DTP/NCI, 2004).
